The values below come from US8835644B2, “Broad spectrum benzothiophene-nitrothiazolide and other antimicrobials” (University of Virginia Patent Foundation, priority 2009, dated 2014).

The structures appear in SMILES notation. Values after ≈ are worked out from the molar mass of the structure shown. Where a name gives a salt, the structure may show the parent alone. Read-outs that look alike come from different tables or passages of the source.

The nature of data set [1]: Zn2+ chelation, spectrophotometric and 1H NMR. The following applies: 1H NMR in DMSO-d6, ratios 1:1, 1:2, 2:1, up to 72 h. The class given is physicochemical. Here is the method: To test direct binding of Zn^2+ by NTZ in solution, we tested a range of concentrations of both NTZ and TIZ and scanned the solutions spectrophotometrically using an OLIS Cary-14 (OLIS Instruments Co., Bogart Ga.). Absolute spectra were recorded over a UV/Vis range from 220 nm to 700 nm. Spectral shifts in the 418 nm range would be attributable to changes in resonance within the thiazole ring that would result if Zn^2+ were coordinated by NTZ (9).
Chelation experiments were also performed utilizing NTZ and TIZ in DMSO-d6 (0.5 mL) with ZnCl2 using a 300 MHz Varian MercuryPlus spectrometer. Specifically, three ratios of NTZ to Zn^2+ were investigated (1:1, 1:2, 2:1) where NTZ was held constant (4 mg, 13 μmoles) while varying ZnCl2 (1.8 mg, 13 μmoles or 3.5 mg, 26 μmoles) or NTZ (8 mg, 26 μmoles) with ZnCl2 (1.8 mg, 13 μmoles). Three ratios of TIZ to Zn^2+ were also investigated (1:1, 1:2, 2:1) where TIZ was held constant (4 mg, 15 μmoles) while varying ZnCl2 (2.1 mg, 15 μmoles or 4.1 mg, 30 μmoles) or TIZ (8 mg, 30 μmoles) with ZnCl2 (2.1 mg, 15 μmoles). ^1H NMR spectra were then obtained after mixing for 5 min, 24 h, 48 h, and 72 h at room temperature. Any chelation event would be evidenced by shifting or broadening of the thiazole and benzene protons as well as loss of the amide proton.

For data set [2], the system named is S. aureus and S. epidermidis strains. Briefly: MIC by microdilution in TSB, staphylococcal strains. Type of data set: cell-based, Staphylococcus epidermidis. As to conditions: Staphylococcus aureus. As to the method:
Minimal inhibitory concentration testing of NTZ was done in sterile round bottom 96 well microtiter polystyrene plates (Corning Inc., Corning, N.Y.) by microdilution. Tizoxanide TIZ (deacetylated form of NTZ), denitro-NTZ (TIZ without 5-nitro group) and amoxanide AMIX (TIZ-ethylamine) were also tested. Bacteria were grown overnight and suspended in fresh TSB to an OD600 of 0.01 and 100 μl were dispensed into wells with the first well containing 200 μA NTZ and other antibiotics (DMSO control) were added to well one and serially diluted from 32 μg/ml. All compounds were tested in triplicate and plates were read visually or with a plate reader (Molecular Devices) at 8, 12 and at 24 h. MIC was determined as the first well in which no visible bacterial growth was noted relative to controls. Drug effects on aerobic growth were determined in 125 ml flasks containing 25 ml of TSB medium and following inoculation (detailed above), flasks were on a gyrorotary shaker (200 rpm) at 37° C. Final concentrations of NTZ were 0, 10 and 25 μg/ml and samples were removed at hourly intervals and absorbance determined at 600 nm.
(Dilution methods test growth across graded concentrations, often in twofold steps.)

For data set [3] the following is noted: reference (33); cited from earlier work.
Data set [4] has as its system S. epidermidis strain 9142. Put plainly: Biofilm determination, crystal violet, S. epidermidis. Type of data set: cell-based, Staphylococcus epidermidis. As to the method: Staphylococcal strains were cultured overnight in TSB at 37° C. with shaking, diluted in fresh medium to an OD600 of 0.01 and 200 W was dispensed into sterile flat bottom polystyrene 96 well microtiter plates (Costar 3596, Corning Inc.). […] Each compound and dilution was tested in triplicate. The plates were incubated overnight at 37° C. in a humidified incubator, without shaking and both growth and biofilm accumulation were determined at 16 h.
Following recording of turbidities, the culture medium was aspirated and the wells were washed three times with distilled water, blotted on paper towels, and fixed with 75% ethanol for 10 minutes.
To visualize biofilm material, 0.5% crystal violet was added to each well and after 5 minutes was removed and the wells washed three times with distilled water. Plates were read using a microplate reader at a wavelength of 570 nm. The dye was then extracted by adding 200 W of 95% ethanol, and the absorbance was read again at 570 nm. All assays were performed in triplicate and the mean and standard deviation determined. Generally, the ethanol-solubilized crystal violet was more reliable and these determinations are reported throughout.

Another data set relates to H. pylori. Put plainly: MIC testing by broth dilution, H. pylori. The class given is cell-based, Helicobacter pylori. As to conditions: Helicobacter pylori, 24 h, read-out: MIC (μM) H. pylori. The gist of the method:
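Broth dilution MIC determination against H. pylori: a standard inoculum in 100 microliters of Brain Heart Infusion medium was placed in 96 well microplates. Test compounds began at 32 μg/ml in 200 microliters in well one and were serially diluted over a 32 to 0.06 range. After 24 h, plates were scored by eye and the first well without growth was recorded as the MIC.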

In a further data set the test system is MRSA. Briefly: MIC testing by broth dilution, MRSA. The class given is cell-based, Staphylococcus aureus. The following applies: Staphylococcus aureus, MRSA, 24 h, read-out: MIC (μM) MRSA. A digest of the protocol:
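Values are broth-dilution MICs, defined as the well showing no growth on visual reading after 24 h; the tested range was 32 to 0.06 μg/ml, in organism-specific media (LB, Trypticase Soy, Brain Heart Infusion). The C. difficile entries come instead from anaerobic Kirby-Bauer disk zones, normalised to NTZ.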

A short description of another data set: Solubility in water. Type of data set: physicochemical.
Data set [5] deals with S. epidermidis strain 9142. Briefly: Effect of zinc on the action of NTZ (biofilm and MIC). Type of data set: cell-based, Staphylococcus epidermidis. As to conditions: zinc 20 μM, read at 8 h. As to the method:
[…] As a control, ZnCl2 was added to untreated bacteria. Additional controls included testing of 10 μM CaCl2 and MgCl2 in the same format. The inhibitory effect of EDTA on biofilm production and its reversibility by Zn^2+ was also assessed as described for NTZ.

The test system of data set [6] is PFOR (pyruvate ferredoxin oxidoreductase). Put plainly: Direct PFOR enzyme assay. The class given is biochemical.
The subject of a further data set is E. coli biofilm. Briefly: E. coli biofilm assay (activity tables). Type of data set: cell-based, Escherichia coli. As to conditions: Escherichia coli, read-out: MIC (μM) E. coli Biofilm. A digest of the protocol: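 After 24 h static culture at 37 °C in wells containing NTZ, strain 042 (1:100 inoculum) biofilm was quantified by 0.5% crystal violet absorbance at 570 nm. Planktonic growth was taken from turbidity or LB plate counts as cfu/ml; all runs triplicate, reported as mean and SD.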

Data set [7] concerns E. histolytica. Briefly: Amoebic dysentery mouse infection model. Type of data set: in vivo. The following applies: drugs given orally or parenterally in advance.
In data set [8] the test system is C. difficile. Briefly: Disk diffusion (Kirby Bower), C. difficile. Type of data set: cell-based, Clostridium difficile. The following applies: zone of inhibited growth as relative ratio to the zone for NTZ. The gist of the method:
(§1)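 Planktonic E. coli (LB) and S. epidermidis (Trypticase Soy), plus C. jejuni (Brain Heart Infusion), were exposed to a dilution series starting at 32 μg/ml. The C. difficile values are anaerobic zone ratios against NTZ.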
(In general: A growth-free zone around the sample is the usual read-out of agar diffusion tests.)

A further data set concerns S. epidermidis biofilm. Put plainly: S. epidermidis biofilm assay (activity tables). The class given is cell-based, Staphylococcus epidermidis. A digest of the protocol:
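Overnight TSB cultures diluted to OD600 0.01 and grown static with compound (triplicate) at 37° C for 16 h; turbidity recorded for growth. Biofilm: washed wells ethanol-fixed, stained with 0.5% crystal violet, A570 read before and after 95% ethanol extraction; mean ± SD.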

In a further data set the test system is S. epidermidis. Put plainly: MIC testing by broth dilution, S. epidermidis plank. Type of data set: cell-based, Staphylococcus epidermidis. As to conditions: Staphylococcus epidermidis, 24 h, read-out: MIC (μM) S. epidermidis Plank. A digest of the protocol: as §1
The test system of another data set is E. coli. Put plainly: MIC testing by broth dilution, E. coli plank. The class given is cell-based, Escherichia coli. As to conditions: Escherichia coli, 24 h, read-out: MIC (μM) E. coli Plank. The gist of the method: as §1
A further data set relates to C. jejuni. Put plainly: MIC testing by broth dilution, C. jejuni. As to conditions: Campylobacter jejuni, 24 h, read-out: MIC (μM) C. jejuni. Type of data set: cell-based, Campylobacter jejuni. A digest of the protocol:
as §1

Data set [9] has as its system E. histolytica. Briefly: E. histolytica cell counts.
Data set [10] relates to C. difficile. Put plainly: MIC by agar dilution, C. difficile. Type of data set: cell-based, Clostridium difficile. As to conditions: Clostridioides difficile, read-out: MIC (μM) C. difficile. As to the method: A standard broth dilution protocol was used in 96 well microplates containing a standard dilution of the microorganism to be tested in 100 microliters of the appropriate medium. Appropriate medium: E. coli, LB medium; Staphylococcus strains, Trypticase Soy; and for H. pylori and C. jejuni, Brain Heart Infusion. The compounds to be tested were set at 32 μg/ml in 200 microliters in well one and then serially diluted to provide a range from 32 to 0.06. The wells were scored visually at 24 h. The well where there was no growth was recorded as the MIC. […]
Representative compounds of the invention were tested in a series of assays against a series of organisms as described above. […] The organisms tested include, C. difficile, H. pylori, C. jejuni, MRSA, S. epidermidis, and E. coli. S. epidermidis and E. coli were tested in the plank and biofilm assay. A disk diffusion assay was also used for C. difficile. Direct PFOR enzyme assays were also performed. All analogues and derivatives were not tested on every organism in every type of assay (the “-” in each table means that it was not tested).
A general note: In agar dilution, organisms are placed on agar that contains the substance at set levels.

As to `O=C(Nc1ncc([N+](=O)[O-])s1)c1ccccc1O` [TIZ], in data set [1], the “Chelation with ZnCl2” value is recorded as “no chelation”. The MIC in data set [2] (staphylococcal strains incl. MRSA S. aureus, microdilution in TSB, read-out: MIC) was in the range of 8 to 16 µg/mL (≈ 30.2 to 60.3 µM). For the same compound, the “Bound to plasma proteins” value in data set [3] is recorded as 97.5%. For the same compound, the “Inhibition of biofilm production” value in data set [4] (compared with NTZ) is “equivalent results”.
In general, solubility refers to the dissolved amount per volume that the medium holds. Lower therefore signals a poorly soluble substance. In general, IC50 refers to the concentration that gives 50% inhibition. For the compound `NCCOc1ccccc1C(=O)Nc1ncc([N+](=O)[O-])s1` [VPC161219, 2-(2-Aminoethoxy)-N-(5-nitrothiazol-2-yl)benzamide hydrochloride], the MIC is 0.7 µM in the data set on H. pylori; 92.8 µM in the data set with MRSA; 46.4 µM in the data set with E. coli biofilm; 16 to 32 µg/mL in [2] (MRSA); 92.8 µM with S. epidermidis; 69.6 µM in the data set on E. coli. For the same compound, the MIC in the data set on C. jejuni was 17.4 µM; in the data set with C. difficile [10] it was 46.4 µM. For the same compound, in “Solubility in water” (more soluble than NTZ), the “Fold difference in water solubility versus NTZ” value amounted to 15 fold. The compound further came in with a solubility in the data set “Solubility in water” (water) of 400 µg/mL. For the same compound, the “Effect of Zn2+ on the growth inhibitory action (MIC)” value in data set [5] is “no effect”. In addition, the “PFOR inhibition relative to nitazoxanide (=100)” value in data set [6] was 114%. For the same compound, in the data set with E. histolytica [7], the Prevention rates result is “equivalence”. Besides, in the data set with C. difficile [8], the “Disk Diffusion (%) C. difficile” value was 88 ± 4%. Moreover, the “MIC (μM) S. epidermidis Biofilm” value against S. epidermidis biofilm came out at 46.4 µM. Moreover, the “E. histolytica cell counts, compared by MIC” value with E. histolytica [9] is “superior to nitazoxanide based on MIC”. The “Fold decrease in anti-biofilm potency versus NTZ” value in data set [4] (S. epidermidis 9142) is given as 2 fold. The IC50 in data set [4] (Staphylococcus epidermidis, 9142, read-out: IC50 biofilm production) is 8 µg/mL.
